Assay results as given in patent US20240158370A1, “CK1 alpha AND DUAL CK1 alpha / GSPT1 DEGRADING COMPOUNDS” (Innovo Therapeutics, Inc., priority 2022, published 2024).

Experiments:
CK1α = target: T1, CK1α (Homo sapiens, UniProt P48729+Q96SW2); test: HiBiT degradation assay, CK1α, Procedure A; assay type: cell-based
T1 construct: CSNK1A1-HiBit KI HEK293(LgBit) Cells; host or cells: HEK293(LgBit) knock-in cells
Summary of the method: (§1)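 Cells in DMEM+10% FBS at 1×10^6 cells/ml were added to pre-spotted compound (10-point dose response, 10 μM to 0.005 μM, 0.1% DMSO) and incubated 6 h at 37° C. Nano-Glo HiBiT lytic reagent was added and luminescence read. DC50 and Ymin came from 4-parameter curve fits.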

GSPT1 = GSPT1 (Homo sapiens, UniProt P15170+Q96SW2); test: HiBiT degradation assay, GSPT1, Procedure A; assay type: cell-based; parameters: HiBit-GSPT1 KI HEK293(LgBit) Cells; host or cells: HEK293(LgBit) knock-in cells
Chain of GSPT1 (P15170 whole entry): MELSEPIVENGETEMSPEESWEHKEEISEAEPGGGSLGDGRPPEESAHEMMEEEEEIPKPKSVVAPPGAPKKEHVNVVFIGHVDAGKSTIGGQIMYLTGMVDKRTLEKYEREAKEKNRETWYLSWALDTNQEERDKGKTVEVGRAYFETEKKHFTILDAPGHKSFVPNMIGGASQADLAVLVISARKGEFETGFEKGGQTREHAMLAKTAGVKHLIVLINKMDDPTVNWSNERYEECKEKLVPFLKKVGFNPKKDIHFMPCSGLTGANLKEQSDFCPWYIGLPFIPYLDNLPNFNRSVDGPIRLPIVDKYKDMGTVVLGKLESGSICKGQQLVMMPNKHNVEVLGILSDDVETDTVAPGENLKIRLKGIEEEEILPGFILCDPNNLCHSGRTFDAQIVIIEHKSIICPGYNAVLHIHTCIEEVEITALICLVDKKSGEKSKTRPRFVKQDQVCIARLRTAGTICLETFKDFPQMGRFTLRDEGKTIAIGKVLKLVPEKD
Chain of GSPT1 (Q96SW2 whole entry): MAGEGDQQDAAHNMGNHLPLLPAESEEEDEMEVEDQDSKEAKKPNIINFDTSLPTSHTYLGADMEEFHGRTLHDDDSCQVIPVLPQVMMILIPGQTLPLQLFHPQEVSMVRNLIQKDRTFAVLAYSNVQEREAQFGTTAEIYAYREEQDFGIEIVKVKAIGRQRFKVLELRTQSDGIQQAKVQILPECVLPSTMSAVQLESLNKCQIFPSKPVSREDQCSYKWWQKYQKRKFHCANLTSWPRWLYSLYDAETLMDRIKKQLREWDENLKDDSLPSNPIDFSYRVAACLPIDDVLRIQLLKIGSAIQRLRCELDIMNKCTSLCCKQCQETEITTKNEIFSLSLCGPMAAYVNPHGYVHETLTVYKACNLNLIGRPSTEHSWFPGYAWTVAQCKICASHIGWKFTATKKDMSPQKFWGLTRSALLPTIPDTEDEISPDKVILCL
Chain of GSPT1 (Q16531 whole entry partner): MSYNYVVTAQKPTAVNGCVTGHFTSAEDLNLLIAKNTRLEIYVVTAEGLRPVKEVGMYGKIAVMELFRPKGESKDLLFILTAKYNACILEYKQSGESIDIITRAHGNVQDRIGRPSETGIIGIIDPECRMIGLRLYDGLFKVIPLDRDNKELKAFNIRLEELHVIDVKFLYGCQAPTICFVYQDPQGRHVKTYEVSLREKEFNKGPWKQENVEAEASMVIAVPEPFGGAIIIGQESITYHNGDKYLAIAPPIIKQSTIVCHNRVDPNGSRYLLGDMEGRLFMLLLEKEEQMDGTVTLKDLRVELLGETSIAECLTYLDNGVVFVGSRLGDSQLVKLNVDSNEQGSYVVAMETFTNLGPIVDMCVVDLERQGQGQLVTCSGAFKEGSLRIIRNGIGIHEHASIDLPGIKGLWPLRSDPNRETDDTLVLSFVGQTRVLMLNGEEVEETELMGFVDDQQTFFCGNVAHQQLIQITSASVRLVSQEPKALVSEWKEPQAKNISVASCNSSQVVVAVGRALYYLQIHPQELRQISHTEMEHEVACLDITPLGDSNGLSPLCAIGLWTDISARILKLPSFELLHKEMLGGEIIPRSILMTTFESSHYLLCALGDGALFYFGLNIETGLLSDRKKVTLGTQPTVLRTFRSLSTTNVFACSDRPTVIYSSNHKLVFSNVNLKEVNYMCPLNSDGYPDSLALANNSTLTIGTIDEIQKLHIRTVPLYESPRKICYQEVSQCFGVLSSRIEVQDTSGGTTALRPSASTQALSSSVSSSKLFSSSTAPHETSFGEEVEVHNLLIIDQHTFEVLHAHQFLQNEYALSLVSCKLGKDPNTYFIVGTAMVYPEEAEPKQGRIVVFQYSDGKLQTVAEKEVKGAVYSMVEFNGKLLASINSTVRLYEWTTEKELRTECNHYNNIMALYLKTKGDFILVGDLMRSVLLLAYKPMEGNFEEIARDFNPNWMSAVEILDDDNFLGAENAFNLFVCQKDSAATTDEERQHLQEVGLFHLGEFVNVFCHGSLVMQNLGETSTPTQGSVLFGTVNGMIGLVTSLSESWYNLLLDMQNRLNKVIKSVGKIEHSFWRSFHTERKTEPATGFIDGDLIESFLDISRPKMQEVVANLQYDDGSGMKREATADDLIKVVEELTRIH
Summary of the method: as §1

T1 sequence (P48729 whole entry): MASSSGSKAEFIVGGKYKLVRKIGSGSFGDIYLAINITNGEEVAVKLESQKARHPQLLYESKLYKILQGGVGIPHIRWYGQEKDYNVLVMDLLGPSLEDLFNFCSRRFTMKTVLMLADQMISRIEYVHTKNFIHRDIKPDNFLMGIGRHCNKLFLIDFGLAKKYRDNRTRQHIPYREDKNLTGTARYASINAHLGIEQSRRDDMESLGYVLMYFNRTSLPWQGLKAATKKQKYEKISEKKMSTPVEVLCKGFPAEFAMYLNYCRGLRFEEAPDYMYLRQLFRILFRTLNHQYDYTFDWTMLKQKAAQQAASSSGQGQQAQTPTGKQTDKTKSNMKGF
T1 sequence (Q96SW2 whole entry): as the sequence (Q96SW2 whole entry) above
T1 sequence (Q16531 whole entry partner): as the sequence (Q16531 whole entry partner) above

SMILES	CK1α Ymin (CK1α; six hours)	DC50 (CK1α; six hours) [nM]	DC50 (GSPT1; six hours) [nM]	GSPT1 Ymin (GSPT1; six hours)	CK1α Ymin (CK1α; six hours incubation)	DC50 (CK1α; six hours incubation) [nM]	DC50 (GSPT1; six hours incubation) [nM]	GSPT1 Ymin (GSPT1; six hours incubation)
Cn1cnc(-c2ccc3c(c2)CN(C2CCC(=O)NC2=O)C3=O)c1-c1cnn(Cc2cccnc2)c1 (stereo not shown) [Example 503]	E (E = >25-75% remaining)	≥ 25	≥ 25	F (F = >75-100% remaining)	–	–	–	–
Cn1cnc(-c2ccc3c(c2)CN(C2CCC(=O)NC2=O)C3=O)c1-c1ccn(C)c(=O)c1 (stereo not shown) [Example 328]	–	–	–	–	D (D = >10- 25% remaining)	≥ 25	≥ 25	F (F = >75-100% remaining)
Cn1ncc(-c2ccc3c(c2)CN(C2CCC(=O)NC2=O)C3=O)c1-c1ccc2cnn(C)c2c1 (stereo not shown) [Example 389]	E (E = >25-75% remaining)	< 25	≥ 25	F (F = >75-100% remaining)	–	–	–	–
Cn1c(C2CC2)nc(-c2ccc3c(c2)CN(C2CCC(=O)NC2=O)C3=O)c1-c1ccncc1 (stereo not shown) [Example 45, 3-(5-(2-Cyclopropyl-1-methyl-5-(pyridin-4-yl)-1H-imidazol-4-yl)-1-oxoisoindolin-2-yl)piperidine-2,6-dione]	–	–	–	–	C (C = 0-10% remaining)	< 25	≥ 25	F (F = >75-100% remaining)
Cn1ncc(-c2ccc3c(c2)CN(C2CCC(=O)NC2=O)C3=O)c1-c1ccccc1C#N (stereo not shown) [Example 152]	–	–	–	–	E (E = >25-75% remaining)	≥ 25	≥ 25	F (F = >75-100% remaining)
Cn1cnc(-c2ccc3c(c2)CN(C2CCC(=O)NC2=O)C3=O)c1-c1cccc2c1CCC2 (stereo not shown) [Example 301]	–	–	–	–	D (D = >10- 25% remaining)	< 25	≥ 25	F (F = >75-100% remaining)
Cn1ncc(-c2ccc3c(c2)CN(C2CCC(=O)NC2=O)C3=O)c1-c1ccc(N2CCOCC2)nc1 (stereo not shown) [Example 466]	F (F = >75-100% remaining)	< 25	≥ 25	F (F = >75-100% remaining)	–	–	–	–
Cn1nc(-c2ccc3c(c2)CN(C2CCC(=O)NC2=O)C3=O)nc1N1CCC(C)(C)CC1 (stereo not shown) [Example 612, 3-(5-(5-(4,4-dimethylpiperidin-1-yl)-1-methyl-1H-1,2,4-triazol-3-yl)-1-oxoisoindolin-2-yl)piperidine-2,6-dione]	D (D = >10- 25% remaining)	< 25	≥ 25	F (F = >75-100% remaining)	–	–	–	–
Cn1cnc(-c2ccc3c(c2)CN(C2CCC(=O)NC2=O)C3=O)c1-c1ccccc1C#N (stereo not shown) [Example 233]	–	–	–	–	D (D = >10- 25% remaining)	< 25	≥ 25	F (F = >75-100% remaining)
Cc1nn(C)cc1-c1c(-c2ccc3c(c2)CN(C2CCC(=O)NC2=O)C3=O)ncn1C (stereo not shown) [Example 323]	–	–	–	–	E (E = >25-75% remaining)	≥ 25	≥ 25	F (F = >75-100% remaining)
[2H]C([2H])([2H])n1ncc(-c2ccc3c(c2)CN(C2CCC(=O)NC2=O)C3=O)c1-c1ccc(OC)cc1Cl (stereo not shown) [Example 434, 3-(5-(5-(2-chloro-4-methoxyphenyl)-1-(methyl-d3)-1H-pyrazol-4-yl)-1-oxoisoindolin-2-yl)piperidine-2,6-dione]	C (C = 0-10% remaining)	< 25	≥ 25	F (F = >75-100% remaining)	–	–	–	–
Cn1cnc(-c2ccc3c(c2)CN(C2CCC(=O)NC2=O)C3=O)c1-c1cc(F)cc(Cl)c1 (stereo not shown) [Example 204]	–	–	–	–	E (E = >25-75% remaining)	< 25	≥ 25	F (F = >75-100% remaining)
Cc1cc(-c2c(-c3ccc4c(c3)CN(C3CCC(=O)NC3=O)C4=O)cnn2C)ccc1F (stereo not shown) [Example 91]	–	–	–	–	E (E = >25-75% remaining)	< 25	≥ 25	E (E = >25-75% remaining)
Cn1ccc(-c2c(-c3ccc4c(c3)CN(C3CCC(=O)NC3=O)C4=O)ncn2C)c1 (stereo not shown) [Example 521]	C (C = 0-10% remaining)	< 25	< 25	E (E = >25-75% remaining)	–	–	–	–
Cn1ncc(-c2ccc3c(c2)CN(C2CCC(=O)NC2=O)C3=O)c1-c1ccc2scnc2c1 (stereo not shown) [Example 392]	E (E = >25-75% remaining)	< 25	≥ 25	F (F = >75-100% remaining)	–	–	–	–
Cn1ncc(-c2ccc3c(c2)CN(C2CCC(=O)NC2=O)C3=O)c1-c1ccccc1C(F)(F)F (stereo not shown) [Example 71]	–	–	–	–	F (F = >75-100% remaining)	< 25	≥ 25	F (F = >75-100% remaining)
Cn1ncc(-c2ccc3c(c2)CN(C2CCC(=O)NC2=O)C3=O)c1-c1ccc2c(c1)OCC2 (stereo not shown) [Example 155]	–	–	–	–	E (E = >25-75% remaining)	< 25	≥ 25	F (F = >75-100% remaining)
Cn1ncc(-c2ccc3c(c2)CN(C2CCC(=O)NC2=O)C3=O)c1-c1ccc2occc2c1 (stereo not shown) [Example 381]	D (D = >10- 25% remaining)	< 25	≥ 25	F (F = >75-100% remaining)	–	–	–	–
Cn1cnc(-c2ccc3c(c2)CN(C2CCC(=O)NC2=O)C3=O)c1-c1ccc(F)cc1Cl (stereo not shown) [Example 259]	–	–	–	–	D (D = >10- 25% remaining)	< 25	< 25	E (E = >25-75% remaining)
Cn1cnc(-c2ccc3c(c2)CN(C2CCC(=O)NC2=O)C3=O)c1-c1ccn(-c2ccc(F)cc2)n1 (stereo not shown) [Example 530]	E (E = >25-75% remaining)	< 25	< 25	F (F = >75-100% remaining)	–	–	–	–
Cn1cnc(-c2ccc3c(c2)CN(C2CCC(=O)NC2=O)C3=O)c1-c1cnn(Cc2ccccc2)c1 (stereo not shown) [Example 406]	D (D = >10- 25% remaining)	≥ 25	< 25	E (E = >25-75% remaining)	–	–	–	–
Cn1ncc(-c2ccc3c(c2)CN(C2CCC(=O)NC2=O)C3=O)c1-c1ccc2c(ccn2C)c1 (stereo not shown) [Example 387]	D (D = >10- 25% remaining)	< 25	≥ 25	F (F = >75-100% remaining)	–	–	–	–
Cc1nc(-c2ccc3c(c2)CN(C2CCC(=O)NC2=O)C3=O)c(-c2cncnc2)n1C (stereo not shown) [Example 544, 3-(5-(1,2-dimethyl-5-(pyrimidin-5-yl)-1H-imidazol-4-yl)-1-oxoisoindolin-2-yl)piperidine-2,6-dione]	E (E = >25-75% remaining)	≥ 25	≥ 25	F (F = >75-100% remaining)	–	–	–	–
Cn1cnc(-c2ccc3c(c2)CN(C2CCC(=O)NC2=O)C3=O)c1-c1ccc2nc[nH]c2c1 (stereo not shown) [Example 401]	C (C = 0-10% remaining)	< 25	≥ 25	E (E = >25-75% remaining)	–	–	–	–
CCn1cnc(-c2ccc3c(c2)CN(C2CCC(=O)NC2=O)C3=O)c1-c1ccccc1 (stereo not shown) [Example 26, 3-(5-(1-Ethyl-5-phenyl-1H-imidazol-4-yl)-1-oxoisoindolin-2-yl)piperidine-2,6-dione]	–	–	–	–	C (C = 0-10% remaining)	< 25	< 25	E (E = >25-75% remaining)
CN1CC=C(c2c(-c3ccc4c(c3)CN(C3CCC(=O)NC3=O)C4=O)cnn2C)CC1 (stereo not shown) [Example 591]	E (E = >25-75% remaining)	≥ 25	< 25	F (F = >75-100% remaining)	–	–	–	–
CN1CC=C(c2c(-c3ccc4c(c3)CN(C3CCC(=O)NC3=O)C4=O)ncn2C)CC1 (stereo not shown) [Example 596]	C (C = 0-10% remaining)	≥ 25	≥ 25	F (F = >75-100% remaining)	–	–	–	–
Cc1ccc(-c2c(-c3ccc4c(c3)CN(C3CCC(=O)NC3=O)C4=O)ncn2C)cc1F (stereo not shown) [Example 240]	–	–	–	–	D (D = >10- 25% remaining)	< 25	< 25	E (E = >25-75% remaining)
